Measured values reported in patent publication US11414436B2, “Non-coordinating anion type activators containing cation having large alkyl groups” (ExxonMobil Chemical Patents Inc., priority 2018, dated 2022).
Values joined by “and” are separate entries in the source; they are usually repeats but may differ in a detail not shown here. Equal entries are not always repeated.

Experiments:
[1] = Solubility studies of the activators (saturated solution in isohexane or methylcyclohexane); format: physicochemical
Protocol: Solubility Studies of the Activators
Procedure for Solid Activators.
A saturated solution of each of the solid ammonium borate activators was prepared by stirring an excess of the activator with either isohexane or methylcyclohexane solvent for several hours at 25° C. The mixture was then filtered and a known volume of the filtrate was evaporated to dryness in a tared vial. The vial was then weighed to determine the mass of activator that was dissolved in the aliquot. The concentration of the saturated solution is presented in millimoles of activator per liter of solution (mM).
Procedure for Activators that Form Emulsions.
A saturated solution of the activator was prepared by slowly adding the solvent to a pre-weighed amount of the activator. The final volume was determined as the minimum amount of solvent required to convert the emulsion into a homogeneous solution. The concentration of the saturated solution is presented in millimoles of activator per liter of solution (mM). Alternatively, an emulsion of the activator was prepared by adding the solvent to an excess amount of activator. The resulting emulsion was separated from the undissolved solids by decanting the emulsion into a tared vial. Solvent was then added dropwise until the emulsion became homogeneous. The mass of the final solution was measured and then the solvent was evaporated to dryness to obtain the mass of the activator. The concentration of the saturated solution is presented in millimoles of activator per liter of solution (mM).

[2] = Ethylene-octene copolymerization in parallel pressure reactor, non-metallocene catalyst CAT-2; details: catalyst CAT-2 20 nmol; activator 1.1 equiv; 100° C.; 135 psi; 1-octene 100 uL; TNOAL 0.5 umol
Protocol: (§1) Solutions of the metal complexes and activators were prepared in a drybox using toluene or methylcyclohexane. Concentrations were typically 0.2 mmol/L. Tri-n-octylaluminum (TNOAL, neat, AkzoNobel) was typically used as a scavenger. Concentration of the TNOAL solution in toluene ranged from 0.5 to 2.0 mmol/L.
(§2) Polymerizations were carried out in a parallel pressure reactor, as generally described in U.S. Pat. Nos. 6,306,658; 6,455,316; 6,489,168; WO 00/09255; and Murphy, V. et al. (2003) “A Fully Integrated High-Throughput Screening Methodology for the Discovery of New Polyolefin Catalysts: Discovery of a New Class of High Temperature Single-Site Group (IV) Copolymerization Catalysts,” J. Am. Chem. Soc., v. 125, pp. 4306-4317, each of which is fully incorporated herein by reference. […] Although the specific quantities, temperatures, solvents, reactants, reactant ratios, pressures, and other variables are frequently changed from one polymerization run to the next, the following describes a typical polymerization performed in a parallel pressure reactor.
(§3) Ethylene-Octene Copolymerization (EO).
(§4) A pre-weighed glass vial insert and disposable stirring paddle were fitted to each reaction vessel of the reactor, which contains 48 individual reaction vessels. The reactor was then closed and purged with ethylene. Each vessel was charged with enough solvent (typically isohexane) to bring the total reaction volume, including the subsequent additions, to the desired volume, typically 5 mL. 1-octene, if required, was injected into the reaction vessel and the reactor was heated to the set temperature and pressurized to the predetermined pressure of ethylene, while stirring at 800 rpm. The aluminum compound (such as tri-n-octylaluminum) in toluene was then injected as scavenger followed by addition of the activator solution (typically 1.0-1.2 molar equivalents).
(§5) The catalyst (and activator solutions for Run A) were all prepared in toluene. The catalyst solution (typically 0.020-0.080 μmol of metal complex) was injected into the reaction vessel and the polymerization was allowed to proceed until a pre-determined amount of ethylene (quench value typically 20 psi) had been used up by the reaction. Alternatively, the reaction may be allowed to proceed for a set amount of time (maximum reaction time typically 30 minutes). Ethylene was added continuously (through the use of computer controlled solenoid valves) to the autoclaves during polymerization to maintain reactor gauge pressure (P setpt, +/−2 psig) and the reactor temperature (T) was monitored and typically maintained within +/−1° C. The reaction was quenched by pressurizing the vessel with compressed air. After the reactor was vented and cooled, the glass vial insert containing the polymer product and solvent was removed from the pressure cell and the inert atmosphere glove box, and the volatile components were removed using a Genevac HT-12 centrifuge and Genevac VC3000D vacuum evaporator operating at elevated temperature and reduced pressure. The vial was then weighed to determine the yield of the polymer product. The resultant polymer was analyzed by Rapid GPC (see below) to determine the molecular weight, by FT-IR (see below) to determine percent octene incorporation, and by DSC (see below) to determine melting point (Tm).
(§6) Equivalence is determined based on the mole equivalents relative to the moles of the transition metal in the catalyst complex.
(§7) Activators of the present disclosure can also be used for activating non-metallocene catalysts for polymerization of olefins. Table 4 illustrates copolymerization of ethylene and octene using activators of the present disclosure and non-metallocene catalysts (CAT-1, CAT-2, CAT-3, and CAT-4).

[3] = Solubility studies of the activators (saturated solution in isohexane or methylcyclohexane); format: physicochemical; details: methylcyclohexane
[4] = Ethylene-octene copolymerization in parallel pressure reactor, non-metallocene catalyst CAT-4; details: catalyst CAT-4 20 nmol; activator 1.1 equiv; 100° C.; 135 psi; 1-octene 100 uL; TNOAL 0.5 umol
Protocol: as §1, §2, §3, §4, §5, §6, §7

[5] = Ethylene-octene copolymerization in parallel pressure reactor, non-metallocene catalyst CAT-3; details: catalyst CAT-3 20 nmol; activator 1.1 equiv; 100° C.; 135 psi; 1-octene 100 uL; TNOAL 0.5 umol
Protocol: as §1, §2, §3, §4, §5, §6, §7

[6] = Ethylene-octene copolymerization in parallel pressure reactor, non-metallocene catalyst CAT-1; details: catalyst CAT-1 20 nmol; activator 1.1 equiv; 100° C.; 135 psi; 1-octene 100 uL; TNOAL 0.5 umol
Protocol: as §1, §2, §3, §4, §5, §6, §7

[7] = Ethylene homopolymerization (PE) in parallel pressure reactor, MCN-1; details: MCN-1 = 20 nmol, activator = 22 nmol, 80° C., 75 PSI
Protocol: Ethylene homopolymerization (PE).
A series of ethylene polymerizations were performed in the parallel pressure reactor sinilar to the procedure described above. In these studies rac-dimethylsilyl- bis(indenyl)hafnium dimethyl (MCN-1) was used along with ammonium borate activators .

[8] = Ethylene-octene copolymerization (EO) in parallel pressure reactor, MCN-1 (Table 6); details: MCN-1 = 20 nmol, activator = 22 nmol, 1-octene 100 μL, 80° C., 75 PSI
Protocol: as §3, §4, §5
A series of ethylene-octene polymerizations were performed in the parallel pressure reactor according to a similar procedure as described above. In these studies rac-dimethylsilyl-bis(indenyl)hafnium dimethyl (MCN-1) was used along with ammonium borate activators.

[9] = Propylene homopolymerization in parallel pressure reactor, MCN-1 with ammonium borate activators
Excerpt: Polymerization in Parallel Pressure Reactor
Solvents, polymerization-grade toluene, and isohexane were supplied by ExxonMobil Chemical Company and purified by passing through a series of columns: two 500 cc Oxyclear cylinders in series from Labclear (Oakland, Calif.), followed by two 500 cc columns in series packed with dried 3 Å mole sieves (8-12 mesh; Aldrich Chemical Company), and two 500 cc columns in series packed with dried 5 Å mole sieves (8-12 mesh; Aldrich Chemical Company). 1-octene (C8) and 1-hexene (C6) (98%, Aldrich Chemical Company) were dried by stirring over NaK overnight followed by filtration through basic alumina (Aldrich Chemical Company, Brockman Basic 1).
as §1, §2
Catalyst systems dissolved in solution were used in the polymerization examples below, unless specified otherwise.
RUN A: Propylene Homopolymerization (PP).
The reactor was prepared as described above and purged with propylene. For the examples in Table 2, the catalyst and activator solutions were prepared in toluene. […] Isohexane was then injected into each vessel at room temperature followed by a predetermined amount of propylene gas. The reactor was heated to the set temperature while stirring at 800 rpm, and the scavenger, activator and catalyst solutions were injected sequentially to each vessel. The polymerization was allowed to proceed as described previously.
A series of propylene polymerizations were performed in parallel pressure reactors (PPRs) developed by Symyx Technologies, Inc. In these polymerizations, the metallocene rac-dimethylsilyl-bis(indenyl)hafnium dimethyl (MCN-1) was used along with several different ammonium borate activators. Polymerizations were performed at 85° C. and 100° C.
Propylene homopolymerization (PP).
A series of propylene polymerizations were performed in the parallel pressure reactor similar to the procedure described above. In these studies rac-dimethylsilyl-bis(indenyl)hafnium dimethyl (MCN-1) was used along with ammonium borate activators.

[10] = RUN B: ethylene-octene polymerization in parallel pressure reactor, activator diluent toluene or methylcyclohexane; details: ethylene-octene copolymerization
Protocol: RUN B: Polymerization in Parallel Pressure Reactor.
A series of ethylene-octene polymerizations were performed in the parallel pressure reactor according to the procedure described above. […] In a typical experiment an automated syringe was used to introduce into the reactor the following reagents, if utilized, in the following order: isohexane (0.35 mL), an isohexane solution of TNOAL scavenger (0.005 M, 60 μL), additional isohexane (0.35 mL), a toluene solution of the respective polymerization catalyst (150 μL, 0.4 mM, 20 nm [cat]/100 μL [toluene]), additional isohexane (0.35 mL), a toluene or methylcyclohexane solution of the respective activator (150 μL, 0.4 mM, (20 nm [act]/100 μL[ diluent])), then additional isohexane so that the total solvent volume for each run was 5 mL. Catalyst and activator were used in a 1:1 ratio. Each reaction was performed at a specified temperature range between 50 and 120° C., typically 95° C., while applying about 100 psig of ethylene (monomer) gas. Each reaction was allowed to run for about 1 hour (˜3600 seconds) or until approximately 20 psig of ethylene gas uptake was observed, at which point the reactions were quenched with air (˜300 psig). When sufficient polymer yield was attained (e.g., at least ˜10 mg), the polyethylene product was analyzed by Rapid GPC, described below.
In a typical experiment, the anilinium borate activators were combined with toluene or methylcyclohexane as diluent and introduced to the parallel, pressure reactor via syringe. By this mechanism of activator introduction, only well dissolved activators could be delivered to the reactor providing a means to discriminate between the polymerization performance of long chain soluble anilinium borates vs. conventional anilinium borates. Following addition of activator, the catalyst Cat 1 was introduced, via syringe as well-dissolved toluene solution and the polymerization was conducted per the methodology described above.

| Compound | activity [2] | activity [4] | activity [5] | activity [6] | activity [7] | activity [8] | also measured |
| --- | --- | --- | --- | --- | --- | --- | --- |
| CCCCCCCCCCCCCCCCCC[NH+](CCCCCCCCCCCCCCCCCC)c1ccc(C)cc1.Fc1c(F)c(F)c([B-](c2c(F)c(F)c(F)c(F)c2F)(c2c(F)c(F)c(F)c(F)c2F)c2c(F)c(F)c(F)c(F)c2F)c(F)c1F [DOdTH-BF20, 4-methyl-N,N-dioctadecylbenzenaminium-BF20] | 1267 kg/mmol/h and 1154 kg/mmol/h | 46 kg/mmol/h and 48 kg/mmol/h | 647 kg/mmol/h and 732 kg/mmol/h | 3716 kg/mmol/h and 3736 kg/mmol/h | – | – | Solubility limit in i-hexane (mM at 25° C.) ([1]; isohexane): 19 mM; Solubility limit in i-hexane (wt % at 25° C.) ([1]; isohexane): 3.7 wt %; Solubility limit in MeCy (mM at 25° C.) ([1]; methylcyclohexane): 110 mM; Solubility limit in MeCy (wt % at 25° C.) [3]: 19 wt % |
| N-methyl-4-nonadecyl-N-octadecylanilinium tetrakis(pentafluorophenyl)borate [NOMAH-BF20] | – | – | – | – | 215.4 kg/mmol/h and 237.5 kg/mmol/h and 399.2 kg/mmol/h and 340.1 kg/mmol/h | 430.9 kg/mmol/h and 414.1 kg/mmol/h and 478.7 kg/mmol/h and 409.6 kg/mmol/h | – |
| N-methyl-4-nonadecyl-N-octadecylanilinium tetrakis(perfluoronaphthalen-2-yl)borate [NOMAH-BF28] | – | – | – | – | 213.1 kg/mmol/h and 202.3 kg/mmol/h and 173.6 kg/mmol/h and 272.1 kg/mmol/h | 302.1 kg/mmol/h and 321.1 kg/mmol/h and 300.0 kg/mmol/h and 345.5 kg/mmol/h | average catalyst activity, comparison of the four activators (FIG. 6) ([9]; MCN-1, polypropylene at 100° C., Table 7 runs): highest average activities; activity ([9]; propylene 150 psi, 100° C., MCN-1 = 30 nmol, activator = 33 nmol, isohexane, TNOAL 500 nmol): 141 kg/mmol/h and 208 kg/mmol/h and 193 kg/mmol/h and 210 kg/mmol/h and 181 kg/mmol/h and 178 kg/mmol/h and 223 kg/mmol/h and 207 kg/mmol/h |
| N,N-Dimethylanilinium tetrakis(pentafluorophenyl)borate [DMAH-BF20, reference compound] | 1140 kg/mmol/h and 916 kg/mmol/h | 76 kg/mmol/h and 45 kg/mmol/h | 819 kg/mmol/h and 698 kg/mmol/h | 2977 kg/mmol/h and 2469 kg/mmol/h | 288.7 kg/mmol/h and 407.1 kg/mmol/h | 644.4 kg/mmol/h and 509.4 kg/mmol/h | quantity of polymer obtained with methylcyclohexane as diluent ([10]; Cat 1, activator in methylcyclohexane): insufficient for analysis; activity ([10]; Cat 1 (MCN-1), activator diluent Toluene, listed as C1): 764.2 kg/mmol/h and 675.0 kg/mmol/h and 659.1 kg/mmol/h and 680.5 kg/mmol/h |
| CCCCCCCCCCCCCCCCCC[NH+](C)c1ccc(CCCCCCCCCCC)cc1.Fc1c(F)c(F)c2c(F)c([B-](c3c(F)c(F)c4c(F)c(F)c(F)c(F)c4c3F)(c3c(F)c(F)c4c(F)c(F)c(F)c(F)c4c3F)c3c(F)c(F)c4c(F)c(F)c(F)c(F)c4c3F)c(F)c(F)c2c1F [UOMAH-BF28, 4-Undecyl-N-methyl-N-octadecylanilinium-BF28] | – | – | – | – | 250.9 kg/mmol/h and 186.5 kg/mmol/h | 366.1 kg/mmol/h and 358.9 kg/mmol/h | – |
| CCCCCCCCCCCCCCCCCC[NH+](C)c1ccc(CCCCCCCCCCC)cc1.Fc1c(F)c(F)c([B-](c2c(F)c(F)c(F)c(F)c2F)(c2c(F)c(F)c(F)c(F)c2F)c2c(F)c(F)c(F)c(F)c2F)c(F)c1F [UOMAH-BF20] | – | – | – | – | 332.5 kg/mmol/h and 317.6 kg/mmol/h and 310.3 kg/mmol/h and 400.0 kg/mmol/h | 502.3 kg/mmol/h and 455.9 kg/mmol/h and 521.4 kg/mmol/h and 421.0 kg/mmol/h | – |
